Measurements taken from the supplement of paper PMC10307832.

Columns and labels:
Test in all cases: relative viability (nuclei count vs DMSO), 5 days (fraction); higher = more cells survive
Ruxolitinib + Vorinostat = compound: N#CC[C@H](C1CCCC1)n1cc(-c2ncnc3[nH]ccc23)cn1 [Ruxolitinib] + O=C(CCCCCCC(=O)Nc1ccccc1)NO [Vorinostat] (partner 1 µM)
In short: (§1)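 For relative viability, nuclei counts in treated wells were divided by those in vehicle wells. Lung cancer cell lines had been pin-tool dosed in 1536-well plates the day after seeding and cultured for 5 days, then fixed and stained in one step (final 0.05% Triton X-100, 1% formaldehyde, 1 ug/ml Hoechst) and imaged at 4×. Doses were one drug alone or a fixed anchor-drug dose plus five library-drug doses (not always all listed) in √10 steps, and values are duplicate-plate medians.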

Vismodegib + Crizotinib = compound: CS(=O)(=O)c1ccc(C(=O)Nc2ccc(Cl)c(-c3ccccn3)c2)c(Cl)c1 [Vismodegib] + C[C@@H](Oc1cc(-c2cnn(C3CCNCC3)c2)cnc1N)c1c(Cl)ccc(F)c1Cl [Crizotinib] (partner 1 µM)
In short: as §1

Vismodegib + Decitabine = compound: CS(=O)(=O)c1ccc(C(=O)Nc2ccc(Cl)c(-c3ccccn3)c2)c(Cl)c1 [Vismodegib] + Nc1ncn([C@H]2C[C@H](O)[C@@H](CO)O2)c(=O)n1 [Decitabine] (partner 2 µM)
In short: as §1

Vismodegib + Vorinostat = compound: CS(=O)(=O)c1ccc(C(=O)Nc2ccc(Cl)c(-c3ccccn3)c2)c(Cl)c1 [Vismodegib] + O=C(CCCCCCC(=O)Nc1ccccc1)NO [Vorinostat] (partner 1 µM)
In short: as §1

Cell Line | relative viability (Ruxolitinib + Vorinostat; first compound 0.08 µM) | relative viability (Ruxolitinib + Vorinostat; first compound 0.253 µM) | relative viability (Ruxolitinib + Vorinostat; first compound 0.8 µM) | relative viability (Ruxolitinib + Vorinostat; first compound 2.53 µM) | relative viability (Ruxolitinib + Vorinostat; first compound 8 µM) | relative viability (Vismodegib + Crizotinib; first compound 0.08 µM) | relative viability (Vismodegib + Crizotinib; first compound 0.253 µM) | relative viability (Vismodegib + Crizotinib; first compound 0.8 µM) | relative viability (Vismodegib + Crizotinib; first compound 2.53 µM) | relative viability (Vismodegib + Crizotinib; first compound 8 µM) | relative viability (Vismodegib + Decitabine; first compound 0.08 µM) | relative viability (Vismodegib + Decitabine; first compound 0.253 µM) | relative viability (Vismodegib + Decitabine; first compound 0.8 µM) | relative viability (Vismodegib + Decitabine; first compound 2.53 µM) | relative viability (Vismodegib + Decitabine; first compound 8 µM) | relative viability (Vismodegib + Vorinostat; first compound 0.08 µM) | relative viability (Vismodegib + Vorinostat; first compound 0.253 µM) | relative viability (Vismodegib + Vorinostat; first compound 0.8 µM) | relative viability (Vismodegib + Vorinostat; first compound 2.53 µM) | relative viability (Vismodegib + Vorinostat; first compound 8 µM)
NCI-H520 | 0.758 | 0.858 | 0.752 | 0.844 | 0.654 | 0.854 | 0.662 | 0.714 | 0.679 | 0.896 | 0.491 | 0.445 | 0.572 | 0.459 | 0.499 | 0.71 | 0.697 | 0.747 | 0.553 | 0.701
NCI-H1355 | 0.69 | 0.564 | 0.691 | 0.6 | 0.536 | 1.04 | 0.995 | 1.02 | 1.07 | 1.09 | 0.354 | 0.333 | 0.347 | 0.372 | 0.364 | 0.716 | 0.632 | 0.569 | 0.611 | 0.648
NCI-H1563 |  |  |  |  |  | 0.914 | 0.801 | 0.888 | 0.814 | 0.969 |  |  |  |  |  |  |  |  |  | 
NCI-H1651 | 0.601 | 0.52 | 0.523 | 0.472 | 0.573 | 0.776 | 0.851 | 0.871 | 0.825 | 0.829 | 0.581 | 0.617 | 0.682 | 0.528 | 0.579 | 0.581 | 0.582 | 0.547 | 0.49 | 0.503
HCC-44 | 1.11 | 1.06 | 1.03 | 1.04 | 1.05 | 0.782 | 0.721 | 0.829 | 0.763 | 0.783 | 0.945 | 0.942 | 0.93 | 0.937 | 1.04 | 1.21 | 1.02 | 1.1 | 1.08 | 1.11
NCI-H1437 | 1.14 | 1.04 | 1.1 | 0.859 | 0.627 | 0.876 | 0.912 | 0.902 | 0.934 | 0.931 | 0.587 | 0.533 | 0.606 | 0.554 | 0.501 | 0.824 | 0.756 | 0.806 | 0.732 | 0.804
201T | 1.12 | 1.16 | 1.21 | 1.25 | 1.17 | 0.954 | 1.06 | 0.997 | 1.02 | 1.01 | 0.826 | 0.813 | 0.869 | 0.848 | 0.846 | 0.956 | 0.952 | 0.973 | 0.977 | 0.924
